Source: patent US8476197B2, “Aminopropenoates as fungicides” (priority 2009, dated 2013)
Like-named read-outs stand apart in the source and are kept apart here. Marks after values point to notes of the source that are not given here.

Log P (pH 2.7)	SMILES	Log P (pH 2.3)	Log P (pH 7.5)
4.34^[a]	C=CCOC(=O)C(C#N)=C(NC(C)C(C)C)c1sccc1Br (stereo not shown) [Compound 962]		
2.74^[a]	CC(C)C(C)NC(=C(C#N)C(=O)O)c1sccc1Br (stereo not shown) [Compound 964]		
4.72^[a]	CCOC(=O)C(C#N)=C(NC(C)C(C)C)c1cc(Cl)sc1Cl (stereo not shown) [Compound 965]		
4.06^[a]	CCOC(=O)C(C#N)=C(NC(C)C(C)C)c1nc(Cl)ccc1Cl (stereo not shown) [Compound 966]		
4.19^[a]	CCOC(=O)C(C#N)=C(NC(C)C(C)C)c1ncc(Cl)cc1Cl (stereo not shown) [Compound 967]		
3.96^[a]	CCOC(=O)C(C#N)=C(NC(C)C(C)C)c1cnc(Cl)cc1Cl (stereo not shown) [Compound 968]		
3.06^[a]	CCOC(=O)C(C#N)=C(NC(C)C(C)C)c1cn(C)nc1OC (stereo not shown) [Compound 969]		
3.06^[a]	C=Cc1nn(C)cc1C(NC(C)C(C)C)=C(C#N)C(=O)OCC (stereo not shown) [Compound 971]		
4.26^[a]	CCOC(=O)C(C#N)=C(NC(C)C(C)C)c1nc(SC)ncc1Br (stereo not shown) [Compound 972]		
4.23^[a]	CCOC(=O)C(C#N)=C(NC(C)C(C)C)c1sc(Cl)nc1Cl (stereo not shown) [Compound 973]		
3.96^[a]	CCOC(=O)C(C#N)=C(NC(C)C(C)C)c1cc(Cl)ncc1Cl (stereo not shown) [Compound 977]		
3.5^[a]	CCOC(=O)C(C#N)=C(NC(C)C(C)C)c1cnccc1C(F)(F)F (stereo not shown) [Compound 982]		
4.26^[a]	CCOC(=O)C(C#N)=C(NC(C)C(C)C)c1cc(Cl)cc(Cl)n1 (stereo not shown) [Compound 983]		
3.92^[a]	CCOC(=O)C(C#N)=C(NC(C)C(C)C)c1ccnc(Cl)c1Cl (stereo not shown) [Compound 994]		
3.93^[a]	CCOC(=O)C(C#N)=C(NC(C)C(C)C)c1c(C(F)(F)F)nn(C)c1F (stereo not shown) [Compound 999]		
2.59^[a]	COCCNC(=O)C(C#N)=C(NC(C)C(C)C)c1cn(C)nc1C(F)F (stereo not shown) [Compound 1005]		
2.98^[a]	CCOC(=O)C(C#N)=C(NC(C)(C)C#N)c1nc(Cl)ccc1Cl [Compound 1011]		
4.19^[a]	C=CCCCC(C=C)NC(=C(C#N)C(=O)OC)c1sc(C)nc1C(F)(F)F (stereo not shown) [Compound 1019]		
3.81^[a]	C=CCCCC(C=C)NC(=C(C#N)C(=O)OCC)c1conc1C (stereo not shown) [Compound 1020]		

Log P (pH 2.7)	SMILES	Log P (pH 2.3)	Log P (pH 7.5)
4.49^[a]	C=CCCCC(C=C)NC(=C(C#N)C(=O)OCC)c1sc(C)nc1C(F)(F)F (stereo not shown) [Compound 1022]		
4.65^[a]	C=CCCCC(C=C)NC(=C(C#N)C(=O)OCC)c1sccc1Cl (stereo not shown) [Compound 1023]		
4.65^[a]	C=CCCCC(C=C)NC(=C(C#N)C(=O)OCC)c1ccsc1I (stereo not shown) [Compound 1024]		
2.98^[a]	CCC#CC(C)(C)NC(=C(C#N)C(=O)OC)c1cccnc1Cl [Compound 1025]		
3.42^[a]	C#CC(C)(C)NC(=C(C#N)C(=O)OCC)c1sccc1Br [Compound 1027]		
3.42^[a]	C#CC(C)(C)NC(=C(C#N)C(=O)OCC)c1ccsc1Br [Compound 1029]		
2.66^[a]	C#CC(C)(C)NC(=C(C#N)C(=O)OCC)c1conc1C [Compound 1030]		
3.02^[a]	C#CC(C)(C)NC(=C(C#N)C(=O)OCC)c1cn(C)nc1C(F)(F)F [Compound 1031]		
3.41^[a]	C#CC(C)(C)NC(=C(C#N)C(=O)OCC)c1sccc1Cl [Compound 1032]		
3.99^[a]	C#CC(C)(C)NC(=C(C#N)C(=O)OCC)c1cc(Cl)sc1Cl [Compound 1033]		
2.44^[a]	C#CC(C)(C)NC(=C(C#N)C(=O)OCC)c1cn(C)nc1OC [Compound 1034]		
2.54^[a]	C#CC(C)(C)NC(=C(C#N)C(=O)OCC)c1cn(C)nc1C=C [Compound 1035]		
3.61^[a]	C#CC(C)(C)NC(=C(C#N)C(=O)OCC)c1sc(Cl)nc1Cl [Compound 1036]		
3.92^[a]	CC#CC(C)(C)NC(=C(C#N)C(=O)OCC)c1sccc1C(F)(F)F [Compound 1040]		
3.85^[a]	CC#CC(C)(C)NC(=C(C#N)C(=O)OCC)c1sccc1Br [Compound 1041]		
2.9^[a]	CC#CC(C)(C)NC(=C(C#N)C(=O)OCC)c1cn(C)nc1C(F)F [Compound 1043]		
3.25^[a]	C#CC(C)NC(=C(C#N)C(=O)OCC)c1sccc1C(F)(F)F (stereo not shown) [Compound 1046]		
3.17^[a]	C#CC(C)NC(=C(C#N)C(=O)OCC)c1sccc1Br (stereo not shown) [Compound 1047]		
2.73^[a]	C#CC(C)NC(=C(C#N)C(=O)OC)c1sc(C)nc1C(F)(F)F (stereo not shown) [Compound 1048]		

Further lines, the compound ahead of its results:

SMILES	Log P (pH 2.7)	Log P (pH 2.3)	Log P (pH 7.5)
CCNC(=O)C(C#N)=C(NC(C)C(C)C)c1cccnc1Cl (stereo not shown) [Compound 958]	2.94		
CONC(=O)C(C#N)=C(NC(C)C(C)C)c1cccnc1Cl (stereo not shown) [Compound 960]		2.31	2.26
CCOC(=O)C(C#N)=C(NC(C)C(C)C)c1cccnc1OC (stereo not shown) [Compound 961]		3.52^[c]; 3.52^[b]	3.52^[c]; 3.52^[b]
CCOC(=O)C(C#N)=C(NC(C)C(C)C)c1cccnc1C(F)(F)F (stereo not shown) [Compound 970]	3.62^[a]		
CCOC(=O)C(C#N)=C(NC(C)C(C)C)c1cccnc1-c1ccc(Cl)cc1 (stereo not shown) [Compound 974]		4.09	4.08
CCOC(=O)C(C#N)=C(NC(C)C(C)C)c1cccnc1-c1cc(Cl)cc(Cl)c1 (stereo not shown) [Compound 975]		4.68	4.67
C=Cc1ncccc1C(NC(C)C(C)C)=C(C#N)C(=O)OCC (stereo not shown) [Compound 976]		3.24	3.26
CCOC(=O)C(C#N)=C(NC(C)C(C)C)c1ccncc1Cl (stereo not shown) [Compound 978]	3.29^[a]		
CCOC(=O)C(C#N)=C(NC(C)C(C)C)c1cccnc1C(C)=O (stereo not shown) [Compound 980]		3.11	3.08
CCOC(=O)C(C#N)=C(NC(C)C(C)C)c1cccnc1C(F)F (stereo not shown) [Compound 981]	3.15^[a]		
CCOC(=O)C(C#N)=C(NC(C)C(C)C)c1cccnc1Cl (stereo not shown) [Compound 984]	3.33	3.22	3.22
CCOC(=O)C(C#N)=C(NC(C)C(C)C)c1cccnc1C(C)=NO (stereo not shown) [Compound 985]		2.69	2.67
CCOC(=O)C(C#N)=C(NC(C)C(C)C)c1ccc(Cl)nc1Cl (stereo not shown) [Compound 986]		3.85^[c]; 3.85^[b]	3.85^[c]; 3.85^[b]
CCCNC(=O)C(C#N)=C(NC(C)C(C)C)c1cccnc1Cl (stereo not shown) [Compound 988]		3.24	3.22
CNC(=O)C(C#N)=C(NC(C)C(C)C)c1cccnc1Cl (stereo not shown) [Compound 989]		2.41^[c]; 2.41^[b]	2.41^[c]; 2.41^[b]
CC(C)C(C)NC(=C(C#N)C(=O)On1nnc2ccccc21)c1cccnc1Cl (stereo not shown) [Compound 990]		3.22	3.21
C#CCNC(=O)C(C#N)=C(NC(C)C(C)C)c1cccnc1Cl (stereo not shown) [Compound 991]		2.69	2.68
CC(C)C(C)NC(=C(C#N)C(=O)NCC(F)(F)F)c1cccnc1Cl (stereo not shown) [Compound 992]		3.17	3.16
CC(C)C(C)NC(=C(C#N)C(N)=O)c1cccnc1Cl (stereo not shown) [Compound 993]		1.97	1.96
CCOC(=O)C(C#N)=C(NC(C)C(C)C)c1ccncc1Br (stereo not shown) [Compound 996]	3.33^[a]		
CCOC(=O)C(C#N)=C(NC(C)C(C)C)c1ccncc1F (stereo not shown) [Compound 997]	3.08^[a]		
C=CCOC(=O)C(C#N)=C(NC(C)C(C)C)c1cn(C)nc1C(F)F (stereo not shown) [Compound 998]	3.31^[a]		
CCOC(=O)C(C#N)=C(NC(C)C(C)C)c1cn(C)nc1C(F)F (stereo not shown) [Compound 1003]	3.15^[a]		

SMILES	Log P (pH 2.7)	Log P (pH 2.3)	Log P (pH 7.5)
CC(C)C(C)NC(=C(C#N)C(=O)NC1CC1)c1cn(C)nc1C(F)F (stereo not shown) [Compound 1006]	2.66^[a]		
C=CCNC(=O)C(C#N)=C(NC(C)C(C)C)c1cn(C)nc1C(F)F (stereo not shown) [Compound 1007]	2.9^[a]		
C=CCNC(=O)C(C#N)=C(NC(C)C(C)C)c1cn(C)nc1C(F)F (stereo not shown) [Compound 1008]	2.68^[a]		
COC(=O)C(C#N)=C(NC1(C)CCCCC1)c1cccnc1Cl [Compound 1009]	3.13^[a]		
COC(=O)C(C#N)=C(NC(C)(C)C#N)c1sc(C)nc1C(F)(F)F [Compound 1010]	3.04^[a]		
C=CCCCC(C=C)NC(=C(C#N)C(=O)OCC)c1cn(C)nc1C(F)(F)F (stereo not shown) [Compound 1021]	4.14^[a]		
C#CC(C)(C)NC(=C(C#N)C(=O)OCC)c1cn(C)cc1C(F)(F)F [Compound 1038]	3.21^[a]		
CC#CC(C)(C)NC(=C(C#N)C(=O)OC)c1cccnc1Cl [Compound 1039]	2.57^[a]		
CC#CC(C)(C)NC(=C(C#N)C(=O)OC)c1sc(C)nc1C(F)(F)F [Compound 1042]	3.35^[a]		
C#CCNC(=C(C#N)C(=O)OCC)c1cccnc1Cl [Compound 1044]		2.18	2.05
C#CC(C)NC(=C(C#N)C(=O)OC)c1cccnc1Cl (stereo not shown) [Compound 1045]	2.14^[a]		
C#CC(C)NC(=C(C#N)C(=O)OCC)c1cn(C)nc1C(F)F (stereo not shown) [Compound 1049]	2.44^[a]		
C#CC(C)NC(=C(C#N)C(=O)OCC)c1sc(C)nc1C(F)(F)F (stereo not shown) [Compound 1050]	3.06^[a]		
CC#CC(C)NC(=C(C#N)C(=O)OC)c1cccnc1Cl (stereo not shown) [Compound 1051]	2.5^[a]		
CC#CC(C)NC(=C(C#N)C(=O)OCC)c1cccnc1Cl (stereo not shown) [Compound 1052]	2.86^[a]		
CCOC(=O)C(C#N)=C(NC1CC1C(F)(F)F)c1cccnc1Cl (stereo not shown) [Compound 1054]	2.9^[a]		
CCOC(=O)C(C#N)=C(NC1CC1(C)C)c1cccnc1Cl (stereo not shown) [Compound 1055]	3.25^[a]		
COC(=O)C(C#N)=C(NC1CC(C)CCC1C)c1cccnc1Cl (stereo not shown) [Compound 1057]	3.73^[a]		
COC(=O)C(C#N)=C(NC1C(C)CCCC1C)c1cccnc1Cl (stereo not shown) [Compound 1058]	3.63^[a]		
CCOC1CCCC1NC(=C(C#N)C(=O)OC)c1cccnc1Cl (stereo not shown) [Compound 1059]	2.93^[a]		
CCC1CCCC(C)C1NC(=C(C#N)C(=O)OC)c1cccnc1Cl (stereo not shown) [Compound 1060]	3.99^[a]		
CCC1CCCCC1NC(=C(C#N)C(=O)OC)c1cccnc1Cl (stereo not shown) [Compound 1061]	3.63^[a]		
